pIC50: −log10 of the molar value.
Key:
[1] = tested on: P. aeruginosa pyocyanin production; experiment: Pyocyanin assay; assay type: cell-based, P. aeruginosa PA14; settings: Pseudomonas aeruginosa, PA14, 16 h, read-out: IC50-value towards pyocyanin production, PA14 in PPGAS medium, 16 h
Outline: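 PA14 in PPGAS medium from OD600 0.02 grown 16 h at 37 °C, 200 rpm, with compounds. Pyocyanin extracted with chloroform, back-extracted into 0.2 M HCl, OD520 normalised to OD600.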

PqsR = PqsR (Pseudomonas aeruginosa, UniProt Q9I4X0); experiment: E. coli based β-galactosidase reporter gene assay (PqsR inverse agonistic activity); assay type: cell-based; set-up: expressed in transfected cells; host or cells: Escherichia coli DH5α
Sequence of PqsR (Q9I4X0 whole entry): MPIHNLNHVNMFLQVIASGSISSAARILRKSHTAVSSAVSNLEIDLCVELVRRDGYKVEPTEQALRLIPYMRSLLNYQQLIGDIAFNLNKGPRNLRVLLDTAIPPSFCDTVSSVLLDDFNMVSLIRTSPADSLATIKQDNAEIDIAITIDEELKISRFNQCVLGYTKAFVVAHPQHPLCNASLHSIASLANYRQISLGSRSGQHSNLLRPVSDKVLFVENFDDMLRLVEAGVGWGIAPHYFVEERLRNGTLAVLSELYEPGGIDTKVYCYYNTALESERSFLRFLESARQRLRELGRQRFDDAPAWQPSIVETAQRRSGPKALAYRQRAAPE
Outline: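 E. coli DH5α carrying pEAL08-2 (tac-driven pqsR with pqsA-lacZ) was grown to OD600 0.2 and incubated with 0.001–10 μM compound plus 50 nM PQS for 2.5 h at 37 °C. β-Galactosidase activity was measured by ONPG conversion in permeabilized cells and normalized between the no-PQS and solvent controls. IC50 came from concentration variation.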

HEK293 cells = experiment: Cytotoxicity (MTT) toward HEK293; assay type: cell-based; settings: Homo sapiens, 48 h, upper class: or at solubility maximum, read-out: IC50-value towards HEK293
Experimental: (§1) To obtain information regarding the toxicity of our compounds, their impact on the viability of human cells was investigated. HepG2 and HEK293 cells (2×10^5 per well) were seeded in 24-well, flat-bottomed culture plates. 24 h after seeding the cells the incubation was started by the addition of compounds in a final DMSO concentration of 1%. The living cell mass was determined 48 h after treatment with compounds by adding 0.1 volumes of 3-(4,5-dimethylthiazol-2-yl)-2,5-diphenyltetrazolium bromide (MTT) solution (5 mg per mL sterile PBS) (Sigma, St. Louis, MO) to the wells. After incubating the cells for 30 min at 37° C. (atmosphere containing 5% CO2), MTT crystals were dissolved in a solution containing 10% SDS and 0.5% acetic acid in DMSO. The optical density (OD) of the samples was determined photometrically at 570 nm in a FLUOstar Omega plate reader (BMG labtech, Ortenberg, Germany). To obtain inhibition values for each sample, their ODs were related to those of DMSO controls.

HepG2 cells = experiment: Cytotoxicity (MTT) toward HepG2; assay type: cell-based; settings: Homo sapiens, 48 h, upper class: or at solubility maximum, read-out: IC50-value towards HepG2
Experimental: as §1

[2] = Metabolic stability against human hepatic S9 fraction; assay type: in vitro ADME; settings: pooled human liver S9 fraction; 1 μM compound, 1 mg/mL pooled human liver S9, phase I and II cofactors, 37° C.; read-out: half-life (t1/2) towards human hepatic S9 fraction
Experimental: For the evaluation of combined phase I and phase II metabolic stability, the compound (1 μM) was incubated with 1 mg/mL pooled human liver S9 fraction (BD Gentest), 2 mM NADPH regenerating system, 1 mM UDPGA, 10 mM MgCl2 and 0.1 mM PAPS at 37° C. for 0, 5, 15, 30 and 60 min. The metabolic stability of Testosterone (1 μM) and 7-hydroxycoumarin (1 μM) were determined in parallel to confirm the enzymatic activity of the S9 fraction. The incubation was stopped by precipitation of S9 enzymes with 2 volumes of cold acetonitrile containing internal standard (750 nM Diphenhydramine). Samples were stored on ice for 10 min and precipitated protein was removed by centrifugation (10 min, 4° C., 17,000 g). Concentration of the remaining test compound at the different time points was analyzed by LC-MS/MS (TSQ Quantum Access MAX, Thermo Fisher, Dreieich, Germany) and used to determine half-life (t/2).

[3] = Kinetic Turbidimetric Aqueous Solubility at room temperature for 5 min; assay type: physicochemical; settings: PBS buffer, kinetic from dmso stock, 2% DMSO
Outline: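 Compound diluted in PBS across typically 0.4–200 μM (final DMSO 2%), held 5 min at room temperature. Turbidity read as absorbance at 620 nm against vehicle control. Four-parameter sigmoidal fit of normalized absorbances with AUC calculation gives Log S.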

[4] = Metabolic stability in mouse liver microsomes (MLM); assay type: in vitro ADME; settings: 1 μM compound, 0.5 mg/mL MLM, 1 mM NADPH, 37° C., read-out: half-life (t1/2) towards MLM
Experimental: For the evaluation of phase I metabolic stability, the compound (1 μM) was incubated with 0.5 mg/mL MLM (Corning) and 1 mM NADPH at 37° C. for 0, 5, 10, 15 and 30 min. The metabolic stability of Verapamil, Diphenhydramine and Benzydamine (1 μM each) were determined in parallel to confirm the enzymatic activity of the MLM. The incubation was stopped by addition of 2 volumes of acetonitrile containing internal standard (1 μM Leucine Enkephaline). Samples were centrifuged (15 min, 3,500 rpm). Concentration of the remaining test compound at the different time points was analyzed by HPLC-MS/MS and used to determine half-life (t1/2).

Row | SMILES | pIC50 [1] | pIC50 (PqsR) | pIC50 (HEK293 cells) | pIC50 (HepG2 cells) | half-life at 1 μM [2] | solubility at 5 min [3] | half-life at 1 μM [4]
1 | FC(F)(F)Oc1ccc(-n2cc(CNc3ccnc(C(F)(F)F)c3)nn2)cc1 [Compound 012, N-((1-(4-(Trifluoromethoxy)phenyl)-1H-1,2,3-triazol-4-yl)methyl)-2-(trifluoromethyl)pyridin-4-amine] | 5.30 to 6.00 | ≥ 7.30 | 4.30 to 4.60 | – | – | – | –
2 | Fc1cc(-n2cc(CNc3ccnc(C(F)(F)F)c3)nn2)ccc1Oc1ccccc1 [Compound 028, N-((1-(3-fluoro-4-phenoxyphenyl)-1H-1,2,3-triazol-4-yl)methyl)-2-(trifluoromethyl)pyridin-4-amine] | 6.00 to 6.60 | ≥ 7.30 | 4.30 to 4.60 | 4.30 to 4.60 | – | – | –
3 | FC(F)(F)c1cc(SCc2cn(-c3ccc(Oc4ccccc4)cc3)nn2)ccn1 [Compound 054, 4-(((1-(4-phenoxyphenyl)-1H-1,2,3-triazol-4-yl)methyl)thio)-2-(trifluoromethyl)pyridine] | 6.00 to 6.60 | ≥ 7.30 | – | – | > 1 h | – | –
4 | FC(F)(F)c1cc(SCc2cnc(-c3ccc(Oc4ccccc4)cc3)s2)ccn1 [Compound 066, 2-(4-Phenoxyphenyl)-5-(((2-(trifluoromethyl)pyridin-4-yl)thio)methyl)thiazole] | 5.30 to 6.00 | 6.60 to 7.29 | – | – | > 1 h | – | –
5 | FC(F)(F)c1cc(NCc2cnc(-c3ccc(Cl)cc3)s2)ccn1 [Compound 072, N-((2-(4-Chlorophenyl)thiazol-5-yl)methyl)-2-(trifluoromethyl)pyridin-4-amine] | 6.00 to 6.60 | 6.60 to 7.29 | – | 4.30 to 4.60 | > 1 h | > 25 µM | > 1 h
6 | N#Cc1cc(NCc2cnc(-c3ccc(Oc4ccccc4)cc3)s2)ccn1 [Compound 076, 4-(((2-(4-Phenoxyphenyl)thiazol-5-yl)methyl)amino)picolinonitrile] | ≥ 6.60 | ≥ 7.30 | – | – | > 1 h | – | > 1 h
7 | COc1ccc(-c2ncc(CNc3ccnc(C#N)c3)s2)cc1Cl [Compound 077, 4-(((2-(3-Chloro-4-methoxyphenyl)thiazol-5-yl)methyl)amino)picolinonitrile] | ≥ 6.60 | ≥ 7.30 | – | 4.30 to 4.60 | – | > 10 µM | –
8 | FC(F)(F)c1cc(NCc2csc(-c3ccc(Oc4ccccc4)cc3)n2)ccn1 [Compound 080, N-((2-(4-Phenoxyphenyl)thiazol-4-yl)methyl)-2-(trifluoromethyl)pyridin-4-amine] | 5.30 to 6.00 | ≥ 7.30 | 4.30 to 4.60 | 4.30 to 4.60 | – | > 10 µM | –
9 | FC(F)(F)c1cc(NCc2csc(-c3ccc(C4CC4)cc3)n2)ccn1 [Compound 081, N-((2-(4-Cyclopropylphenyl)thiazol-4-yl)methyl)-2-(trifluoromethyl)pyridin-4-amine] | ≥ 6.60 | ≥ 7.30 | – | – | 0.683 to 1 h | – | –
10 | CC(C)Oc1ccc(-c2nc(CNc3ccnc(C(F)(F)F)c3)cs2)cc1Cl [Compound 082, N-((2-(3-Chloro-4-isopropoxyphenyl)thiazol-4-yl)methyl)-2-(trifluoromethyl)pyridin-4-amine] | ≥ 6.60 | ≥ 7.30 | – | – | > 1 h | – | –
11 | CC(C)Oc1ccc(-c2nc(CNc3ccnc(C(F)(F)F)c3)cs2)cc1 [Compound 087, N-((2-(4-Isopropoxyphenyl)thiazol-4-yl)methyl)-2-(trifluoromethyl)pyridin-4-amine] | ≥ 6.60 | ≥ 7.30 | – | – | > 1 h | > 10 µM | –
12 | FC(F)(F)c1cc(NCc2ccc(-c3ccc(Oc4ccccc4)cc3)cn2)ccn1 [Compound 097, N-((5-(4-phenoxyphenyl)pyridin-2-yl)methyl)-2-(trifluoromethyl)pyridin-4-amine] | 6.00 to 6.60 | 6.60 to 7.29 | 4.30 to 4.60 | 4.30 to 4.60 | – | > 10 µM | –
13 | FC(F)(F)c1cc(SCc2ccc(-c3ccc(Oc4ccccc4)nc3)cn2)ccn1 [Compound 114, 6-Phenoxy-6′-(((2-(trifluoromethyl)pyridin-4-yl)thio)methyl)-3,3′-bipyridine] | – | 6.60 to 7.29 | – | – | > 1 h | – | –
14 | Nc1cc(SCc2nc3cc(Cl)ccc3[nH]2)nc(C(F)(F)F)n1 [Compound 118, 6-(((5-Chloro-1H-benzo[d]imidazol-2-yl)methyl)thio)-2-(trifluoromethyl)pyrimidin-4-amine] | 5.30 to 6.00 | 6.60 to 7.29 | – | – | > 1 h | – | –
15 | Fc1cc2nc(CSc3ccnc(C(F)(F)F)c3)[nH]c2cc1F [Compound 122, 5,6-Difluoro-2-(((2-(trifluoromethyl)pyridin-4-yl)thio)methyl)-1H-benzo[d]imidazole] | – | 6.00 to 6.60 | ≤ 4.30 | ≤ 4.30 | – | ≥ 100 µM | –
16 | Nc1cc(SCc2nc3cc(Oc4ccccc4)ccc3[nH]2)nc(C(F)(F)F)n1 [Compound 125, 6-(((5-Phenoxy-1H-benzo[d]imidazol-2-yl)methyl)thio)-2-(trifluoromethyl)pyrimidin-4-amine] | 6.00 to 6.60 | ≥ 7.30 | – | – | > 1 h | > 25 µM | –
17 | Cc1cccc(Oc2ccc3[nH]c(CSc4cc(N)nc(C(F)(F)F)n4)nc3c2)c1 [Compound 128, 6-(((5-(m-Tolyloxy)-1H-benzo[d]imidazol-2-yl)methyl)thio)-2-(trifluoromethyl)pyrimidin-4-amine] | – | ≥ 7.30 | 4.30 to 4.60 | 4.30 to 4.60 | – | > 25 µM | –
18 | FC(F)(F)c1cc(NCc2nc3ccc(Oc4ccccc4)cc3o2)ccn1 [Compound 134, N-((6-Phenoxybenzo[d]oxazol-2-yl)methyl)-2-(trifluoromethyl)pyridin-4-amine] | – | 6.00 to 6.60 | – | – | > 1 h | ≥ 100 µM | –
19 | CC(C)Oc1ccc(-c2ncc(CNc3cc(C#N)nc(C(F)(F)F)c3)s2)cc1Cl [Compound 160, 4-(((2-(3-Chloro-4-isopropoxyphenyl)thiazol-5-yl)methyl)amino)-6-(trifluoromethyl)picolinonitrile] | ≥ 6.60 | ≥ 7.30 | – | – | – | > 10 µM | 0.517 to 1 h
20 | CC(C)Oc1ncc(-c2ncc(CNc3ccnc(C(F)(F)F)c3)cn2)cc1Cl [Compound 164, N-((2-(5-chloro-6-isopropoxypyridin-3-yl)pyrimidin-5-yl)methyl)-2-(trifluoromethyl)pyridin-4-amine] | 6.00 to 6.60 | ≥ 7.30 | – | – | – | > 25 µM | > 1 h
21 | CC(C)Oc1ccc(-c2ccc(CNc3ccnc(C(F)(F)F)c3)nc2)cc1Cl [Compound 165, N-((5-(3-chloro-4-isopropoxyphenyl)pyridin-2-yl)methyl)-2-(trifluoromethyl)pyridin-4-amine] | 6.00 to 6.60 | ≥ 7.30 | – | – | – | > 25 µM | > 1 h

— patent publication US11883387B2, “PqsR inverse agonists” (HELMHOLTZ-ZENTRUM FÜR INFEKTIONSFORSCHUNG GMBH, priority 2018, dated 2024)
